Assay results taken from the NIST ThermoML archive (doi:10.1016/j.jct.2016.10.039).
± gives the expanded uncertainty stated by the source.

Test: mn = molality of the nth substance listed, in mol/kg
Conditions: 298.15 K, 85 kPa, Liquid, Alternating current cell with electrodes

CCCCCCCCCCCCn1cc[n+](C)c1.[Br-] [1-dodecyl-3-methylimidazolium bromide] + O
Conditions	electrical conductivity [S/m]
m1 = 0.00123	0.0086 ± 0.0007
m1 = 0.00244	0.0169 ± 0.0014
m1 = 0.00361	0.0251 ± 0.0021
m1 = 0.00476	0.0331 ± 0.0028
m1 = 0.00588	0.0411 ± 0.0034
m1 = 0.00698	0.0489 ± 0.0041
m1 = 0.00805	0.0567 ± 0.0049
m1 = 0.00909	0.0644 ± 0.0049
m1 = 0.01011	0.0702 ± 0.0039
m1 = 0.01111	0.0736 ± 0.0031
m1 = 0.01209	0.0764 ± 0.003
m1 = 0.01304	0.0788 ± 0.0032
m1 = 0.01398	0.0814 ± 0.0033
m1 = 0.01489	0.0836 ± 0.0032
m1 = 0.01579	0.0856 ± 0.0034
m1 = 0.01667	0.0877 ± 0.0037
m1 = 0.01753	0.0898 ± 0.0038
m1 = 0.01837	0.0918 ± 0.004
m1 = 0.01919	0.0938 ± 0.0041
m1 = 0.02	0.0957 ± 0.0043
m1 = 0.02079	0.0977 ± 0.0047
m1 = 0.02157	0.0997 ± 0.002

CCCCCCCCCCCC[N+](C)(C)C.[Br-] [dodecyltrimethylammonium bromide] + O
Conditions	electrical conductivity [S/m]
m1 = 0.00185	0.0125 ± 0.001
m1 = 0.00366	0.0246 ± 0.002
m1 = 0.00542	0.0367 ± 0.0031
m1 = 0.00714	0.0487 ± 0.0042
m1 = 0.00882	0.0609 ± 0.0053
m1 = 0.01047	0.0731 ± 0.0065
m1 = 0.01207	0.0856 ± 0.0077
m1 = 0.01364	0.0976 ± 0.0082
m1 = 0.01517	0.108 ± 0.0076
m1 = 0.01667	0.116 ± 0.0061
m1 = 0.01813	0.121 ± 0.005
m1 = 0.01957	0.125 ± 0.0049
m1 = 0.02097	0.128 ± 0.005
m1 = 0.02234	0.132 ± 0.0051
m1 = 0.02368	0.135 ± 0.0054
m1 = 0.025	0.138 ± 0.0056
m1 = 0.02629	0.141 ± 0.006
m1 = 0.02755	0.145 ± 0.0064
m1 = 0.02879	0.148 ± 0.0066
m1 = 0.03	0.151 ± 0.0068
m1 = 0.03119	0.154 ± 0.0071
m1 = 0.03235	0.157 ± 0.0073
m1 = 0.0335	0.16 ± 0.0032

O [water] + CCCCCCCCCCCC[N+](C)(C)C.[Br-]
Conditions	electrical conductivity [S/m]
m2 = 0	0.00021 ± 1e-05

O [water] + CCCCCCCCCCCCn1cc[n+](C)c1.[Br-]
Conditions	electrical conductivity [S/m]
m2 = 0	0.00024 ± 1e-05
